Measurements: the supplement of paper PMC10307832

Experiments:
Assay in all cases: relative viability (nuclei count vs DMSO), 5 days (fraction); higher = more cells survive
Afatinib + Decitabine = compound: CN(C)C/C=C/C(=O)Nc1cc2c(Nc3ccc(F)c(Cl)c3)ncnc2cc1O[C@H]1CCOC1 [Afatinib] + Nc1ncn([C@H]2C[C@H](O)[C@@H](CO)O2)c(=O)n1 [Decitabine] (partner 2 µM)
Outline: (§1)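 Dosing by pin tool came one day after lung cancer cell lines were seeded in 1536-well plates, using either one drug or a fixed anchor-drug dose plus five library-drug doses (not always all listed) in √10 steps. After 5 days, nuclei were counted on 4× images. Relative viability is treated-well nuclei count divided by vehicle-well nuclei count, and values are medians of duplicate plates.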

Afatinib + Foretinib = compound: CN(C)C/C=C/C(=O)Nc1cc2c(Nc3ccc(F)c(Cl)c3)ncnc2cc1O[C@H]1CCOC1 [Afatinib] + COc1cc2c(Oc3ccc(NC(=O)C4(C(=O)Nc5ccc(F)cc5)CC4)cc3F)ccnc2cc1OCCCN1CCOCC1 [Foretinib] (partner 0.25 µM)
Outline: as §1

Afatinib + Dasatinib = compound: CN(C)C/C=C/C(=O)Nc1cc2c(Nc3ccc(F)c(Cl)c3)ncnc2cc1O[C@H]1CCOC1 [Afatinib] + Cc1nc(Nc2ncc(C(=O)Nc3c(C)cccc3Cl)s2)cc(N2CCN(CCO)CC2)n1 [Dasatinib] (partner 0.075 µM)
Outline: as §1

Afatinib + Luminespib = compound: CN(C)C/C=C/C(=O)Nc1cc2c(Nc3ccc(F)c(Cl)c3)ncnc2cc1O[C@H]1CCOC1 [Afatinib] + CCNC(=O)c1noc(-c2cc(C(C)C)c(O)cc2O)c1-c1ccc(CN2CCOCC2)cc1 [Luminespib] (partner 0.01 µM)
Outline: as §1

| Cell Line | relative viability (Afatinib + Decitabine; first compound 0.005 µM) | relative viability (Afatinib + Decitabine; first compound 0.01581 µM) | relative viability (Afatinib + Decitabine; first compound 0.05 µM) | relative viability (Afatinib + Decitabine; first compound 0.1581 µM) | relative viability (Afatinib + Decitabine; first compound 0.5 µM) | relative viability (Afatinib + Foretinib; first compound 0.005 µM) | relative viability (Afatinib + Foretinib; first compound 0.01581 µM) | relative viability (Afatinib + Foretinib; first compound 0.05 µM) | relative viability (Afatinib + Foretinib; first compound 0.1581 µM) | relative viability (Afatinib + Foretinib; first compound 0.5 µM) | relative viability (Afatinib + Dasatinib; first compound 0.005 µM) | relative viability (Afatinib + Dasatinib; first compound 0.01581 µM) | relative viability (Afatinib + Dasatinib; first compound 0.05 µM) | relative viability (Afatinib + Dasatinib; first compound 0.1581 µM) | relative viability (Afatinib + Dasatinib; first compound 0.5 µM) | relative viability (Afatinib + Luminespib; first compound 0.005 µM) | relative viability (Afatinib + Luminespib; first compound 0.01581 µM) | relative viability (Afatinib + Luminespib; first compound 0.05 µM) | relative viability (Afatinib + Luminespib; first compound 0.1581 µM) | relative viability (Afatinib + Luminespib; first compound 0.5 µM) |
| --- | --- | --- | --- | --- | --- | --- | --- | --- | --- | --- | --- | --- | --- | --- | --- | --- | --- | --- | --- | --- |
| HCC-15 | 0.75 | 0.622 | 0.625 | 0.594 | 0.645 | 1.04 | 1.15 | 1.08 | 1.07 | 0.988 | 0.609 | 0.646 | 0.617 | 0.609 | 0.642 | 0.352 | 0.56 | 0.313 | 0.48 | 0.34 |
| HCC-44 | 0.99 | 0.96 | 0.981 | 0.968 | 1.07 | – | – | – | – | – | – | – | – | – | – | 0.957 | 1.11 | 1.13 | 1.17 | 1.26 |
| HCC-78 | 0.726 | 0.607 | 0.616 | 0.635 | 0.651 | 0.549 | 0.568 | 0.405 | 0.324 | 0.386 | 0.445 | 0.341 | 0.366 | 0.29 | 0.331 | – | – | – | – | – |
| HCC-366 | 0.293 | 0.407 | 0.383 | 0.324 | 0.34 | 0.916 | 0.949 | 0.868 | 0.937 | 0.914 | 0.697 | 0.666 | 0.605 | 0.62 | 0.723 | – | – | – | – | – |
| HCC-827 | 0.162 | 0.155 | 0.178 | 0.174 | 0.161 | 0.135 | 0.166 | 0.162 | 0.147 | 0.163 | 0.14 | 0.135 | 0.16 | 0.175 | 0.15 | 0.228 | 0.133 | 0.227 | 0.169 | 0.148 |
| HOP-62 | 0.252 | 0.181 | 0.238 | 0.193 | 0.219 | 1.18 | 1.23 | 1.18 | 1.14 | 1.1 | 0.701 | 0.639 | 0.731 | 0.648 | 0.693 | 1.04 | 0.977 | 0.968 | 0.994 | 0.89 |
| IA-LM | – | – | – | – | – | 1.47 | 1.13 | 1.2 | 1.03 | 1.07 | – | – | – | – | – | – | – | – | – | – |
| LC-2-ad | 0.769 | 0.866 | 0.786 | 0.694 | 0.767 | 0.815 | 0.718 | 0.565 | 0.565 | 0.6 | 0.735 | 0.389 | 0.527 | 0.509 | 0.477 | 1.01 | 1.05 | 1.13 | 1.08 | 1.05 |
| LCLC-97TM1 | 0.262 | 0.17 | 0.234 | 0.273 | 0.255 | 1 | 0.906 | 0.894 | 0.808 | 0.907 | 0.926 | 0.766 | 0.812 | 0.709 | 0.842 | 0.785 | 0.862 | 0.708 | 0.722 | 0.68 |
| LCLC-103H | 0.714 | 0.774 | 0.727 | 0.704 | 0.718 | 0.832 | 0.814 | 0.734 | 0.834 | 0.846 | 0.424 | 0.454 | 0.48 | 0.459 | 0.483 | 0.779 | 1.04 | 0.968 | 0.784 | 0.917 |
| LK-2 | 0.41 | 0.258 | 0.288 | 0.328 | 0.301 | 0.994 | 1.13 | 0.851 | 1.06 | 0.997 | 0.26 | 0.359 | 0.28 | 0.216 | 0.269 | 0.191 | 0.185 | 0.185 | 0.188 | 0.192 |
| NCI-H522 | 0.644 | 0.672 | 0.736 | 0.655 | 0.581 | – | – | – | – | – | 0.877 | 0.992 | 0.712 | 0.733 | 0.692 | 1.25 | 1.19 | 0.978 | 0.923 | 1 |
| NCI-H1299 | – | – | – | – | – | 1.14 | 1.06 | 1.15 | 1.12 | 1.17 | – | – | – | – | – | – | – | – | – | – |
| NCI-H1563 | – | – | – | – | – | 0.891 | 0.967 | 0.933 | 0.836 | 0.87 | 0.476 | 0.435 | 0.437 | 0.501 | 0.451 | 0.489 | 0.558 | 0.552 | 0.501 | 0.515 |
| NCI-H1648 | 0.551 | 0.419 | 0.378 | 0.417 | 0.34 | – | – | – | – | – | – | – | – | – | – | – | – | – | – | – |
| NCI-H1703 | – | – | – | – | – | 0.319 | – | 0.347 | 0.361 | 0.329 | – | – | – | – | – | – | – | – | – | – |
| NCI-H1792 | 0.505 | 0.592 | 0.489 | 0.522 | 0.513 | – | – | – | – | – | 0.657 | 0.84 | 0.748 | 0.657 | 0.911 | 0.389 | 0.695 | 0.464 | 0.376 | 0.41 |
| NCI-H2228 | – | – | – | – | – | 0.914 | 0.88 | 0.774 | 0.795 | 0.759 | 0.619 | 0.56 | 0.55 | 0.41 | 0.634 | 0.141 | 0.127 | 0.136 | 0.132 | 0.143 |
